Consider one compound from US9616062B2, “Cyclin dependent kinase inhibitors and methods of use” (priority 2009, dated 2017).

For assay [1], the system named is renal cell proliferation in female FVB wt mice. In words: EdU incorporation into whole kidney of cisplatin-treated mice (flow cytometry). Format: in vivo, mouse. The method, then:
FIG. 6: CDK4/6 inhibition blocks EdU incorporation into whole kidney in mice treated with cisplatin. […] EdU ([…]) was given IP every 24 hours prior to sacrifice. Kidneys were collected and single cell isolates were prepared and stained for EdU incorporation. Proliferation was assessed by flow cytometry. Data represents % of EdU staining in untreated, cisplatin-treated and cisplatin/PD0332991 treated cells.
[…] Proliferation was assessed by using BrdU (1 mg IP injection) every 6 hours for 24 hours prior to sacrifice or […] (0.1 mg IP) every 24 hours for 3 days prior to sacrifice.
Kidneys were harvested from mice and single cells were isolated using a gentleMACS™ tissue dissociator (Miltinyi Biotec, Bergisch Gladbach, Germany). Briefly, kidneys were cut into small pieces and placed in 10 ml collagenase (1 mg/ml) in a gentleMACS™ C tube (Miltinyi Biotec, Bergisch Gladbach, Germany). Tissue was dissociated following the manufacturer's recommendations (Miltinyi Biotec, Bergisch Gladbach, Germany). Cells were then incubated for 5 minutes in ACK buffer to lyse red blood cells, filtered and pelleted. Cells were resuspended in 4% paraformaldehyde and stored overnight at 4° C. For quantification of EdU incorporation, the cells were fixed, permeabilized, and stained with an APC EdU Flow Kit according to the manufacturer's instruction (Invitrogen Corporation, Carlsbad, Calif., United States of America). Flow cytometric analysis was performed using a CyAn ADP (Dako, Glostrup, Denmark). For each sample, a minimum of 500,000 cells was analyzed and the data were analyzed using FlowJo software (Tree Star, Inc., Ashland, Oreg., United States of America).
The kidney is relatively quiescent until challenged by a renal insult. Therefore, to determine whether renal cell proliferation was dependent on CDK4/6 activity in vivo, renal cell proliferation was stimulated by treating female FVB wt mice with cisplatin, a known nephrotoxic chemotherapeutic agent. At time 0 hr, mice were started on chow delivering PD0332991 100 mg/kg per day or standard chow with no drug. […]
On the technique in general: A flow cytometer gives signals particle by particle.

In assay [2] the test system is human peripheral blood T cells (memory and naive). As to the kind of experiment: Human peripheral blood T cell proliferation after PMA and ionomycin stimulation (BrdU, Ki-67 FACS). The class given is cell-based. The method, then: FIG. 13: CDK4/6 inhibitors suppress T cell proliferation upon stimulation through TCR pathway in both memory and naïve compartments. Human peripheral blood T cells were purified using Automacs by CD3 positive selection before being treated with CDK4/6 inhibitors and stimulated with PMA and Inomycin for 48 hrs. The proliferation of memory […] T cells after stimulation by PMA and Inomycin was measured by FACS staining of BrdU+ or Ki-67+ cells. The percentages of inhibition are shown, which indicates more inhibition of memory compartment than naïve compartment.
FIG. 14: CDK4/6 inhibitors suppress T cell proliferation upon stimulation through TCR pathway. […] Proliferation determined by BrdU or Ki67 incorporation. […]
FIG. 15: Changes of CD4 T cell composition after CDK4/6 inhibition. […] The memory and terminal differentiated T cell fractions as assessed by BrdU incorporation are reduced after CDK4/6 inhibition. […]
FIG. 16: Changes of CD4 T cell composition after CDK4/6 inhibition. […] The memory and terminal differentiated T cell fractions as assessed by Ki67 staining are reduced after CDK4/6 inhibition. […]
Similar results were seen using human lymphocytes. […] In FIG. 15, the effects of CDK4/6 inhibition on specific Tcell fractions is assessed, with and without TCR, showing CDK4/6 inhibition has a greater effect on proliferation of memory cells relative to naïve cells. […]

Take `CC(=O)c1c(C)c2cnc(Nc3ccc(N4CCNCC4)cn3)nc2n(C2CCCC2)c1=O` [PD0332991, 6-acetyl-8-cyclopentyl-5-methyl-2-(5-piperazin-1-yl-pyridin-2-ylamino)-8H-pyrido-[2,3-d]-pyrimidin-7-one]: in assay [1] (cisplatin and PD0332991 vs cisplatin and vehicle control), the “reduction in cell proliferation” value was found to be 88%. In addition, the “cells labeled with EdU” value in assay [1] (kidney single cell suspension, 72 h, cisplatin 15 mg/kg IP, PD0332991 100 mg/kg per day in chow or no drug) was “approximately 2%”. Moreover, the “proliferation of memory vs naive T cells (BrdU incorporation, Ki67 expression)” value in assay [2] was “more significant decrease in homeostatic proliferation of memory T cells than naive T cells”.
